In US10238713B2, “Cyclic tetrapeptides and therapeutic applications thereof” (LODZ UNIVERSITY OF TECHNOLOGY, priority 2010, dated 2019):
Like-named read-outs stand apart in the source and are kept apart here. Non-standard residues stand in square brackets, D forms with d. Residues, ends and D or L forms follow the SMILES beside them. *: point of attachment. 2Nal = N[C@@H](Cc1ccc2ccccc2c1)C(=O)O; d(β3hF) = N[C@@H](CC(=O)O)Cc1ccccc1; β3hF = N[C@H](CC(=O)O)Cc1ccccc1; tBu = CC(C)(C)*

What was measured:
[1] = tested on: PHA-induced proliferation of human peripheral blood mononuclear cells (PBMC); assay: Proliferative response of PBMC to PHA (MTT); assay type: cell-based; settings: four-day incubation
Description: PBMC were isolated by centrifugation on Ficoll-uropoline gradient (density 1.077 g/ml) (Lymphoprep; PAA Laboratories), at 800×g for 20 min at 4° C. The interphase cells, consisting of lymphocytes (20%) and monocytes (80%) were then washed three times with Hanks' medium and re-suspended in the culture medium at density of 2×10^6 cells/ml.
The isolated PBMC were distributed into 96-well flat-bottom plates in 100 μl aliquots (2×10^5 cells/well). PHA was used at concentration of 5 μg/ml. The compounds were tested at concentrations of 1, 10 and 100 μg/ml. DMSO at appropriate dilutions served as control. After a four-day incubation in a cell culture incubator, the proliferative response of cells was determined by the colorimetric MTT method (Hansen et al., J. Immunol. Methods, 1989, pp. 203-210). The data are presented as a mean OD value from quadriplicate wells ±standard error (SE). The cultures “Control (−)” contained no mitogen (PHA). The cultures “Control (PHA)” contained PHA but not cyclic tetrapeptides.
Briefly, 25 μl of MTT (5 mg/ml) stock solution was added per well at the end of cell incubation and the plates were incubated for 3 h in a cell culture incubator. Then, 100 μl of the extraction buffer (20% SDS with 50% DMF, pH 4.7) was added. After additional overnight incubation, the optical density was measured at 550 nm (Dynatech 5000).

[2] = tested on: mice, carrageenan-induced foot pad edema; assay: Carrageenan-induced foot-pad edema test; assay type: in vivo, mouse; settings: 4 h after carrageenan; peptides 250 μg i.p., DEX 25 μg i.p., 30 min before; FIGS. 17A-17C
Description: (§1) In this and the air-pouch test, 1.5 mg peptide was dissolved in 300 μl of DMSO, then in 0.9% NaCl to achieve the desired dose (250 μg/0.2 ml or 100 μg/0.2 ml). Carrageenan (Sigma) was dissolved in 0.9% aqueous NaCl (overnight). 50 μl of 2% carrageenan solution was injected intradermally into hind foot pads. The peptides were given in a single 250 μg dose (0.2 ml) per mouse intraperitoneally (i.p.), 30 min before carrageenan administration. Dexamethasone (DEX) (Dexaven, Polfa, Poland), a reference drug, was given i.p. in dose 25 μg per mouse. Control mice were administered i.p. appropriately diluted solvent (DMSO in aqueous NaCl) instead of peptides. The foot pads of “background” (BG) mice were injected with 50 μl of 0.9% aqueous NaCl. Foot pad edema was measured with a spring caliper, 2 h, 3 h and 4 h after administration of carrageenan. The results are presented in FIGS. 17A, 17B and 17C as mean values of the antigen-specific increase of the foot pad thickness measured in 5 mice in each experimental group and expressed in mm ±SE (only results from measurements 4 h following administration of carrageenan are presented in figures). Statistics: FIG. 17A: Control vs: DEX P=0.0001; 4B8M P=0.0001; P25 NS (P=1.0000); P28 NS (P=1.0000); P31 NS (P=0.0528); P35 P=0.0008 (ANOVA of Kruskal-Wallis); FIG. 17B: Statistics: Control vs: P22 NS (P=1.0000); P26 NS (P=1.0000); P27 P=0.0050; P30 P=0.0004; P33-b NS (P=1.0000); SP00-b P=0.0001; P00S-b NS (P=1.0000) (ANOVA of Kruskal-Wallis); FIG. 17C: Statistics: Control vs: P21 P=0.0147; P23-2 P=0.0083; P24 P=0.0001; P29 NS (P=0.9999); P32 P=0.0001; P33 NS (P=0.6806); P34 NS (P=0.1920) (ANOVA).

[3] = tested on: mice, carrageenan air pouch; assay: Carrageenan air-pouch test (exudate cell number); assay type: in vivo, mouse; settings: peptides 100 μg i.p. one hour before carrageenan, 24 h; FIGS. 18A-18B
Description: as §1
Air pouches were formed by subdermal injection into the dorsal region (in a halothane anesthesia) of 5 cm^3 of air (needle 23G x 11/4, 5 ml syringe). On day 3 the air pouches were given an additional 2 ml of air and an inflammatory process was elicited by an intra-pouch injection of 1% of carrageenan in 0.5 ml of 0.9% aqueous NaCl. The peptides were given i.p. at a dose of 100 μg one hour before carrageenan injection into the air pouch. The mice from the “background” (BG) group were given 0.9% aqueous NaCl i.p. and 0.9% aqueous NaCl into the air pouches. Control mice were given appropriately diluted DMSO i.p. and carrageenan into the air pouches. 24 h after carrageenan injection, the mice were sacrificed by cervical dislocation, the air pouches were supplemented with 1 ml of 0.9% aqueous NaCl and the exudates from the air pouches were aspirated using a syringe. The exudates were diluted with 0.9% aqueous NaCl and the cells were counted in a Bürker hemocytometer. Data are presented in FIGS. 18A and 18B as the mean values from 10 mice/group (cell number×10^6 per mouse) ±SE. Then the cells were centrifuged and 0.1 ml of the supernatant was saved for TNF-α determination (see Determination of TNF-α activity, above). The cell pellets were used to perform smears on microscopic glasses, which were stained with Giemsa and May-Grünwald reagents for evaluation of mast cell degranulation. Cell analysis was performed by a histologist using a light microscope and 1000× magnification. The content of intact and degranulated mast cells is given in percentage (mean values from 10 mice/group) ±SE. Statistics: FIG. 18A: BG vs Control P=0.0000; Control vs: DEX P=0.0034; 4B8M P=0.0005; P22 NS (P=0.7275); P26 P=0.0032; P27 NS (P=0.0659); P35 NS (P=1.0000) (ANOVA of Kruskal-Wallis); FIG. 18B: Control vs: P21 NS (P=0.322); P23-2 P=0.0020; P24 P=0.0001; P25 P=0.0418; P28 NS (P=0.3502); P29 NS (P=0.0582); P30 P=0.0006; P31 P=0.0078; P32 P=0.0340; P33 NS (P=0.9993); P34 NS (p=0.0566) (ANOVA).

human PBMC = assay: Toxicity test: PBMC survival in 24 h culture (MTT); settings: ANOVA
[4] = tested on: LPS-induced TNF-α production; assay type: cell-based; settings: Table 2A
Description: Human whole blood was diluted 10-fold with RPMI-1640 medium and distributed to 24-well culture plates in 1 ml aliquots. LPS was added to the culture at a concentration of 1 μg/ml. The studied peptides were used at concentrations of 1, 10 and 100 μg/ml. After overnight incubation, the supernatants were harvested and frozen at −20° C. until cytokine determination. TNF-α activity was determined using a bioassay. Briefly, WEHI 164.13 cells (ATCC CRL 1751) were seeded at a concentration of 2×10^4 cells/well in quadriplicate. Increasing dilutions of the assayed supernatant were mixed with the target cells in the presence of actinomycin D (1 μg/ml). After 20 h of incubation, MTT was added into the wells, and the cultures were incubated for an additional 4 h. […] The detection limit of the assay was about 2.5 pg/ml. One unit of TNF-α activity was defined as an inverse of supernatant dilution where 50% cell death took place. The cultures labeled “Control (−)” contained no LPS. The cultures labeled “Control (LPS)” contained LPS and none of the studied compounds. Statistical analysis was not applied since the data derive from single cultures (wells).

[5] = 10 μg/ml, FIGS. 8A-8F (4B8M repeated per figure)
[6] = 100 μg/ml, FIGS. 8A-8F (4B8M repeated per figure)
[7] = compound 1 μg/ml, LPS 1 μg/ml, overnight
[8] = compound 100 μg/ml (DMSO only: 196)

Row | Compound | PHA-induced PBMC proliferation, P vs DMSO at appropriate dilution ([1]; 10 μg/ml, FIGS. 9A-9F) | PHA-induced PBMC proliferation, P vs DMSO at appropriate dilution ([1]; 100 μg/ml, FIGS. 9A-9F) | foot pad edema (increase of foot pad thickness), P vs Control [2] | air pouch exudate cell number, P vs Control [3] | PBMC survival, P vs DMSO at appropriate dilution (human PBMC; [5]) | PBMC survival, P vs DMSO at appropriate dilution (human PBMC; [6]) | PHA-induced PBMC proliferation, P vs DMSO at appropriate dilution ([1]; 1 μg/ml, FIGS. 9A-9B) | % inhibition vs. DMSO ([4]; compound 1 μg/ml) [%] | TNF-α [4, 7] [pg/mL] | % inhibition vs. DMSO ([4]; compound 10 μg/ml) [%] | TNF-α ([4]; compound 10 μg/ml) [pg/mL] | % inhibition vs. DMSO ([4]; compound 100 μg/ml) [%] | TNF-α [4, 8] [pg/mL] | PBMC survival, P vs DMSO at appropriate dilution (human PBMC; 1 μg/ml, FIGS. 8A-8B)
1 | O=C1C[C@H](Cc2ccccc2)NC(=O)[C@@H]2CCCN2C(=O)[C@@H]2CCCN2C(=O)[C@H](Cc2ccc3ccccc3c2)N1 [I-U] (cyclo([2Nal]PP[β3hF])) | 1.0000 | 0.0002 | 0.0083 | 0.0020 | 0.9972 | 0.4949 | – | – | – | – | – | – | – | –
2 | O=C1C[C@H](Cc2ccccc2)NC(=O)[C@H]2CCCN2C(=O)[C@H]2CCCN2C(=O)[C@@H](Cc2ccccc2)N1 [I-E] (cyclo([dF][dP][dP][β3hF])) | 1.0000 | 0.9982 | – | – | – | – | 1.0000 | 19.0 | 6614 | 20.7 | 6346 | 10.2 | 176 | –
3 | CC(C)(C)Oc1ccc(C[C@@H]2NC(=O)C[C@H](Cc3ccccc3)NC(=O)[C@@H]3CCCN3C(=O)[C@@H]3CCCN3C2=O)cc1 [I-N] (cyclo(PP[β3hF]Y(tBu))) | – | – | – | – | 1.0000 | 1.0000 | – | – | – | – | – | – | – | 1.0000
4 | O=C1C[C@H](Cc2ccccc2)NC(=O)[C@@H]2CCCN2C(=O)[C@@H]2CCCN2C(=O)[C@@H](Cc2ccccc2)N1 [I-D] (cyclo(PP[β3hF][dF])) | 0.9999 | 1.0000 | – | – | – | – | 1.0000 | 14.1 | 7016 | 28.1 | 5757 | 28.1 | 141 | –
5 | C[C@@H]1C[C@H]2[C@@H]3CCC4=CC(=O)C=C[C@]4(C)[C@@]3(F)[C@@H](O)C[C@]2(C)[C@@]1(O)C(=O)CO [DEX, dexamethasone, reference compound] | – | – | 0.0001 | 0.0034 | – | – | – | – | – | – | – | – | – | –
6 | O=C1C[C@H](Cc2ccccc2)NC(=O)[C@@H]2CCCN2C(=O)[C@@H]2CCCN2C(=O)[C@H](Cc2c[nH]c3ccccc23)N1 [I-L] (cyclo(PP[β3hF]W)) | – | – | – | – | 1.0000 | 0.9957 | – | – | – | – | – | – | – | 0.9999
7 | O=C1C[C@H](Cc2ccccc2)NC(=O)[C@@H]2CCCN2C(=O)[C@H]2CCCN2C(=O)[C@H](Cc2ccccc2)N1 [I-F] (cyclo([dP]P[β3hF]F)) | 0.9930 | 0.0001 | – | – | – | – | 1.0000 | 25.9 | 6052 | 34.8 | 5222 | 61.2 | 76 | –
8 | CC(C)(C)Oc1ccc(C[C@H]2CC(=O)N[C@@H](Cc3ccccc3)C(=O)N3CCC[C@H]3C(=O)N3CCC[C@H]3C(=O)N2)cc1 [I-AF] | 0.9850 | 0.0010 | 1.0000 | – | 1.0000 | 0.0090 | – | – | – | – | – | – | – | –
9 | O=C1C[C@@H](Cc2ccccc2)NC(=O)[C@H]2CCCN2C(=O)[C@H]2CCCN2C(=O)[C@@H](Cc2ccccc2)N1 [I-J] (cyclo([d(β3hF)][dF][dP][dP])) | 1.0000 | 0.1257 | – | – | – | – | 1.0000 | 1.6 | 8033 | 4.4 | 7658 | 0.0 | 203 | –
10 | O=C1C[C@H](Cc2ccccc2)NC(=O)[C@H]2CCCN2C(=O)[C@@H]2CCCN2C(=O)[C@H](Cc2ccccc2)N1 [I-H] (cyclo(FP[dP][β3hF])) | 1.0000 | 0.2037 | – | – | – | – | 0.5198 | 12.8 | 7123 | 10.0 | 7203 | 43.9 | 110 | –
11 | O=C1C[C@@H](Cc2ccccc2)NC(=O)[C@@H]2CCCN2C(=O)[C@@H]2CCCN2C(=O)[C@H](Cc2ccccc2)N1 [I-G] (cyclo(FPP[d(β3hF)])) | 0.4297 | 0.9970 | – | – | – | – | 0.9047 | 33.1 | 5463 | 33.8 | 5302 | 70.4 | 58 | –
12 | CC(C)(C)OC[C@@H]1NC(=O)[C@H](Cc2ccccc2)NC(=O)C[C@H](Cc2ccccc2)NC(=O)[C@@H]2CCCN2C1=O [I-AL] (cyclo(FS(tBu)P[β3hF])) | 0.2258 | 0.9976 | 0.0001 | – | 1.0000 | 0.0466 | – | – | – | – | – | – | – | –
